Laboratory results published in patent US10941157B2, “Pesticidal compositions and uses thereof” (Gilead Apollo, LLC, priority 2015, dated 2021).
Values after ≈ are worked out from the molar mass of the structure shown.

Tests used:
Botrtyis cinerea (Bc) = test: In vitro pathogen growth inhibition assay, Bc; assay type: cell-based; settings: 48 h, ≥90% growth inhibition; 48 hours; vs 2% DMSO control; read-out: Compound Concentration (ppm) sufficient for ≥90% inhibition of Bc
In short: (§1)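 Value reported is the compound concentration reaching ≥90% growth inhibition, from OD readings at 24 and 48 h after blank subtraction, confirmed visually. Inoculum was spores diluted in 17% V8 medium, except Rs, using 1.5 mm mycelial plugs in ¼ PDB; actual compound concentration corrected via OD600.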

[1] = tested on: Collectotrichum graminicola (Cg); test: In vitro pathogen growth inhibition assay, Cg; assay type: cell-based; settings: 48 h, ≥90% growth inhibition; 48 hours; vs 2% DMSO control; read-out: Compound Concentration (ppm) sufficient for ≥90% inhibition of Cg
In short: as §1

Diplodia maydis (Dm) = test: In vitro pathogen growth inhibition assay, Dm; assay type: cell-based; settings: Stenocarpella maydis, 48 h, ≥90% growth inhibition; 48 hours; vs 2% DMSO control; read-out: Compound Concentration (ppm) sufficient for ≥90% inhibition of Dm
In short: (§2)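 Spores in 17% V8 liquid medium, or 1.5 mm Rs mycelial plugs in ¼ PDB, incubated with compound; final concentration checked by OD600 for precipitation. OD readings at 24 and 48 h, blank-subtracted, plus visual ratings; value is concentration giving ≥90% growth inhibition.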

[2] = tested on: Fusarium moniliforme (Fm); test: In vitro pathogen growth inhibition assay, Fm; assay type: cell-based; settings: Fusarium verticillioides; ≥90% growth inhibition; 48 hours; vs 2% DMSO control; read-out: Compound Concentration (ppm) sufficient for ≥90% inhibition of Fm
In short: as §1

[3] = tested on: Fusarium virguliforme (Fv); test: In vitro pathogen growth inhibition assay, Fv; assay type: cell-based; settings: ≥90% growth inhibition, 48 hours, vs 2% DMSO control, read-out: Compound Concentration (ppm) sufficient for ≥90% inhibition of Fv
In short: as §2

[4] = tested on: Phytophthora capsici (Pc); test: In vitro pathogen growth inhibition assay, Pc; assay type: cell-based; settings: 48 h, ≥90% growth inhibition, 48 hours, vs 2% DMSO control, read-out: Compound Concentration (ppm) sufficient for ≥90% inhibition of Pc
In short: as §2

Rhizoctonia solani (Rs) = test: In vitro pathogen growth inhibition assay, Rs (mycelial plugs); assay type: cell-based; settings: Rhizoctonia solani, 48 h, ≥90% growth inhibition; mycelial plugs; 48 hours; vs 2% DMSO control; read-out: Compound Concentration (ppm) sufficient for ≥90% inhibition of Rs
In short: as §2

Septoria tritici (St) = test: In vitro pathogen growth inhibition assay, St; assay type: cell-based; settings: Zymoseptoria tritici, 48 h, ≥90% growth inhibition; 48 hours; vs 2% DMSO control; read-out: Compound Concentration (ppm) sufficient for ≥90% inhibition of St
In short: as §1

[5] = tested on: Blumeria graminis f. sp. hordei; test: Foliar protection test for barley powdery mildew control; assay type: in vivo; settings: foliar spray on Hordeum vulgare cv. Perry, inoculated 24 hours after treatment, evaluated 7 days later
In short: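 Protective foliar test: compound atomized onto both leaf surfaces of 6-day-old Hordeum vulgare cv. Perry, followed after 24 h by spore-cloud inoculation from colonized untreated plants. Disease rated on leaves 7 days on, plants held at 20 to 22° C and 70% RH.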

Sphaerotheca fuliginea = test: Foliar protection for cucumber powdery mildew control; assay type: in vivo; settings: foliar spray on Cucumis sativus cv. Straight Eight, inoculated 24 hours after treatment, evaluated 7 days later
In short: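 Protective foliar spray on 10-day-old Straight Eight cucumbers, with S. fuliginea spores dusted from infected stock plants 24 h after treatment. Disease developed at 23–27 °C, 60% RH and a 16 h photoperiod. Leaves were rated for mildew growth after 7 days; test rates 10 ppm or below.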

[6] = tested on: Mycosphaerella graminicola (synthetic Septoria tritici); test: Foliar protection test for wheat septoria leaf blotch control; assay type: in vivo; settings: foliar spray on Triticum aestivum cv. WinterHawk, inoculated 1 hour after treatment, evaluated 16 days later
Fusarium graminearum = assay type: in vivo; settings: spray on flowering Triticum aestivum cv. Samson, inoculated 24 hours after treatment, evaluated 14 days later
Puccinia triticina = test: Foliar protection test for wheat leaf rust control; assay type: in vivo; settings: foliar application to wheat (Triticum aestivum cv. Winterhawk), evaluated 10 days later
Phakopsora pachyrhizi = test: Foliar protection test for Asian soybean rust control; assay type: in vivo; settings: foliar application to soybean (Glycine max AG4832), percent disease area evaluated 14 days later

| Compound | IC90 (Botrtyis cinerea (Bc)) [µg/mL] | IC90 [1] [µg/mL] | IC90 (Diplodia maydis (Dm)) [µg/mL] | IC90 [2] [µg/mL] | IC90 [3] [µg/mL] | IC90 [4] [µg/mL] | IC90 (Rhizoctonia solani (Rs)) [µg/mL] | IC90 (Septoria tritici (St)) [µg/mL] | Barley Powdery Mildew Control at a compound concentration of 10 ppm or lower [5] | Cucumber Powdery Mildew Control at a compound concentration of 10 ppm or lower (Sphaerotheca fuliginea) | Septoria Leaf Blotch Control at a compound concentration of 25 ppm or lower [6] | Wheat Fusarium Head Blight Control at a compound concentration of 25 ppm or lower (Fusarium graminearum) | Wheat Leaf Rust Control at a compound concentration of 10 ppm or lower (Puccinia triticina) | Asian Soybean Rust Control at a compound concentration of 25 ppm or lower (Phakopsora pachyrhizi) |
| --- | --- | --- | --- | --- | --- | --- | --- | --- | --- | --- | --- | --- | --- | --- |
| COc1ccccc1[C@H](Cn1c(=O)n([C@@H](C)C(=O)N(C)C(C)C)c(=O)c2c(C)c(-n3nccn3)sc21)OCCC#N [Compound I-239, (S)-2-(1-((R)-2-(2-cyanoethoxy)-2-(2-methoxyphenyl)ethyl)-5-methyl-2,4-dioxo-6-(2H-1,2,3-triazol-2-yl)-1,4-dihydrothieno[2,3-d]pyrimidin-3 (2H)-yl)-N-isopropyl-N-methylpropanamide] | 2 (≈ 3.45 µM) | 2 (≈ 3.45 µM) | 2 (≈ 3.45 µM) | 0.08 (≈ 0.138 µM) | 0.08 (≈ 0.138 µM) | ≥ 10 | 0.08 (≈ 0.138 µM) | ≥ 10 | AA (≥85% control of barley powdery mildew) | AA (≥85% control of cucumber powdery mildew) | D (<25% control of wheat septoria leaf blotch) | C (from 25 to 49% control of wheat fusarium head blight) | AA (≥85% control of wheat leaf rust) | AA (≥85% control of Asian soybean rust) |
| CCc1ccc(F)cc1[C@H](Cn1c(=O)n(C(C)(C)C(=O)NC(C)C)c(=O)c2c(C)c(-n3nccn3)sc21)OCCO [Compound I-246, (R)-2-(1-(2-(2-ethyl-5-fluorophenyl)-2-(2-hydroxyethoxy)ethyl)-5-methyl-2,4-dioxo-6-(2H-1,2,3-triazol-2-yl)-1,4-dihydrothieno[2,3-d]pyrimidin-3 (2H)-yl)-N-isopropyl-2-methylpropanamide] | 0.4 (≈ 0.682 µM) | 0.08 (≈ 0.136 µM) | 0.4 (≈ 0.682 µM) | 0.08 (≈ 0.136 µM) | 0.08 (≈ 0.136 µM) | 10 (≈ 17 µM) | 0.1 (≈ 0.17 µM) | ≥ 2 | A (from 70% to 84% control of barley powdery mildew) | AA (≥85% control of cucumber powdery mildew) | A (from 70% to 84% control of wheat septoria leaf blotch) | B (from 50 to 69% control of wheat fusarium head blight) | A (from 70% to 84% control of wheat leaf rust) | AA (≥85% control of Asian soybean rust) |
| CCOC(=O)c1sc2c(c1C)c(=O)n(C(C)(C)C(=O)NC(C)C)c(=O)n2C[C@H](OCC#N)c1cc(F)ccc1OC [Compound I-251, (R)-ethyl-1-(2-(cyanomethoxy)-2-(5-fluoro-2-methoxyphenyl)ethyl)-3-(1-(isopropylamino)-2-methyl-1-oxopropan-2-yl)-5-methyl-2,4-dioxo-1,2,3,4-tetrahydrothieno[2,3-d]pyrimidine-6-carboxylate] | 0.4 (≈ 0.68 µM) | 2 (≈ 3.4 µM) | 2 (≈ 3.4 µM) | 0.08 (≈ 0.136 µM) | 0.4 (≈ 0.68 µM) | > 50 | 0.4 (≈ 0.68 µM) | > 10 | AA (≥85% control of barley powdery mildew) | AA (≥85% control of cucumber powdery mildew) | C (from 25 to 49% control of wheat septoria leaf blotch) | C (from 25 to 49% control of wheat fusarium head blight) | D (<25% control of wheat leaf rust) | C (from 25 to 49% control of Asian soybean rust) |
| CCOC(=O)c1sc2c(c1C)c(=O)n(C(C)(C)C(=O)NC(C)C)c(=O)n2C[C@H](OC[C@@H](C)C#N)c1cc(F)ccc1OC [Compound I-258, (R)-ethyl-1-(2-((S)-2-cyanopropoxy)-2-(5-fluoro-2-methoxyphenyl)ethyl)-3-(1-(isopropylamino)-2-methyl-1-oxopropan-2-yl)-5-methyl-2,4-dioxo-1,2,3,4-tetrahydrothieno[2,3-d]pyrimidine-6-carboxylate] | 0.4 (≈ 0.649 µM) | 0.08 (≈ 0.13 µM) | 0.4 (≈ 0.649 µM) | 0.08 (≈ 0.13 µM) | 0.4 (≈ 0.649 µM) | ≥ 10 | 0.08 (≈ 0.13 µM) | ≥ 2 | A (from 70% to 84% control of barley powdery mildew) | AA (≥85% control of cucumber powdery mildew) | B (from 50 to 69% control of wheat septoria leaf blotch) | C (from 25 to 49% control of wheat fusarium head blight) | A (from 70% to 84% control of wheat leaf rust) | C (from 25 to 49% control of Asian soybean rust) |
| CCOC(=O)c1sc2c(c1C)c(=O)n(C(C)(C)C(=O)NC(C)C)c(=O)n2C[C@H](OC[C@H](C)C#N)c1cc(F)ccc1OC [Compound I-259, (R)-ethyl-1-(2-((R)-2-cyanopropoxy)-2-(5-fluoro-2-methoxyphenyl)ethyl)-3-(1-(isopropylamino)-2-methyl-1-oxopropan-2-yl)-5-methyl-2,4-dioxo-1,2,3,4-tetrahydrothieno[2,3-d]pyrimidine-6-carboxylate] | 0.4 (≈ 0.649 µM) | 0.08 (≈ 0.13 µM) | 0.4 (≈ 0.649 µM) | 0.08 (≈ 0.13 µM) | 0.4 (≈ 0.649 µM) | > 50 | 0.08 (≈ 0.13 µM) | > 10 | A (from 70% to 84% control of barley powdery mildew) | AA (≥85% control of cucumber powdery mildew) | C (from 25 to 49% control of wheat septoria leaf blotch) | B (from 50 to 69% control of wheat fusarium head blight) | C (from 25 to 49% control of wheat leaf rust) | B (from 50 to 69% control of Asian soybean rust) |
